In publication PMC8341145 (RSC Chemical Biology, 2021):

Key:
Assay in all cases: CYP inhibition assay
Format in all cases: cell-based
[1] = test system: CYP1A; conditions: read-out: CYP1A
[2] = target: CYP3A4 (Homo sapiens, UniProt P08684)
[3] = target: CYP2C19 (Homo sapiens, UniProt P33261)
[4] = target: CYP2C9 (Homo sapiens, UniProt P11712)
[5] = target: T1, CYP2C8 (Homo sapiens, UniProt P10632)
T1 sequence (P10632 1-490): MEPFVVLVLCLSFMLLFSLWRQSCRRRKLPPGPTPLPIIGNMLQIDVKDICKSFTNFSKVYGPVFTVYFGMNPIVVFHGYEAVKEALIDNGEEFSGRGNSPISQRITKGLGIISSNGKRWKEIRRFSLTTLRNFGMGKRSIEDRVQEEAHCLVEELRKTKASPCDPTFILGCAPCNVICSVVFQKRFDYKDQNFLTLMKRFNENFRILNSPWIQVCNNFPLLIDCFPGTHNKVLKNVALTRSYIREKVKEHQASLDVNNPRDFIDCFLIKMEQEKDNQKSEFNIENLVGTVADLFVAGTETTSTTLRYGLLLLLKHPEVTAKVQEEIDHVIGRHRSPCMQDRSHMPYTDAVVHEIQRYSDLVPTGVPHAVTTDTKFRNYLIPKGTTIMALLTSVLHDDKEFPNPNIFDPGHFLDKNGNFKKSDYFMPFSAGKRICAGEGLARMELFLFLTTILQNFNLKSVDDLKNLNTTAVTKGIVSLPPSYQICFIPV

[6] = target: CYP2D6 (Homo sapiens, UniProt P10635)
Chain of CYP2D6 (P10635 whole entry): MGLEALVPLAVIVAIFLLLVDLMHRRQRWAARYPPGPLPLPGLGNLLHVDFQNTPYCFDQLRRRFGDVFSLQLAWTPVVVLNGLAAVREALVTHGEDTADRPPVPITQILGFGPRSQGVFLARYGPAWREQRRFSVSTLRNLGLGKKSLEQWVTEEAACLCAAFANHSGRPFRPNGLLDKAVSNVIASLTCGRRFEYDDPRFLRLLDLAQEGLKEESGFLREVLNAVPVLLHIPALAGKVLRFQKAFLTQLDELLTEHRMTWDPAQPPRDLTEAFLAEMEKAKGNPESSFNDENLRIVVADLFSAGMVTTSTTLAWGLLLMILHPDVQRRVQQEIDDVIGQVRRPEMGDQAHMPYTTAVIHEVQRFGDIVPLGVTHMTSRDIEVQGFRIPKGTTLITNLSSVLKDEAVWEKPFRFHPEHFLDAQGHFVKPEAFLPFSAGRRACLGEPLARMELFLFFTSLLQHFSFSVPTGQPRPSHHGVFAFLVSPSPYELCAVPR

Chain of CYP2C9 (P11712 whole entry): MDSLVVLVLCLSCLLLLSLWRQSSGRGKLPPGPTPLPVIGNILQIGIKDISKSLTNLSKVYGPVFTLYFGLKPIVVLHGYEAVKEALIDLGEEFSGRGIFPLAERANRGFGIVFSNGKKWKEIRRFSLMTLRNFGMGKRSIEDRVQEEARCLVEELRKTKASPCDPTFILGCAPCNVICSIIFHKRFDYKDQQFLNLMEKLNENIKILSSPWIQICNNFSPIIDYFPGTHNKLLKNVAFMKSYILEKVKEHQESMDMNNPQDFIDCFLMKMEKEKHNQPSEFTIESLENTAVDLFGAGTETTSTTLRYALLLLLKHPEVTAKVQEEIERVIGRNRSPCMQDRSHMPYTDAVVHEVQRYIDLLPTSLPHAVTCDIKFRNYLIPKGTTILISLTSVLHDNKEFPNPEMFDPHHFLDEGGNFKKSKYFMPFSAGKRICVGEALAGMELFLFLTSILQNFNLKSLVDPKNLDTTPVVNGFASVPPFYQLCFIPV
Chain of CYP2C19 (P33261 whole entry): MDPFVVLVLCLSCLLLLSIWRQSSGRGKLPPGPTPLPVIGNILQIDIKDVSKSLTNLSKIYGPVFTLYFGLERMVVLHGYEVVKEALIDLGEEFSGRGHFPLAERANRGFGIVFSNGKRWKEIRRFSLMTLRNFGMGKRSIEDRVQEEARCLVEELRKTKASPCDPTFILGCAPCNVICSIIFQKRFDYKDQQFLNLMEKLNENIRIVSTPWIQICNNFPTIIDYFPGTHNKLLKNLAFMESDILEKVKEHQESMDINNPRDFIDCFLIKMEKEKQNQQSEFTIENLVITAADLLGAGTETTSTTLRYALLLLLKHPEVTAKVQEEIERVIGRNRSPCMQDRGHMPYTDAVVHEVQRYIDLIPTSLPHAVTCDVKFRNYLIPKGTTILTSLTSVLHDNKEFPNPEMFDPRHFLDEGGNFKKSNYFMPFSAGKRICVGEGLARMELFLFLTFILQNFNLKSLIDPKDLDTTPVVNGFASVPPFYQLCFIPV
Chain of CYP3A4 (P08684 2-503): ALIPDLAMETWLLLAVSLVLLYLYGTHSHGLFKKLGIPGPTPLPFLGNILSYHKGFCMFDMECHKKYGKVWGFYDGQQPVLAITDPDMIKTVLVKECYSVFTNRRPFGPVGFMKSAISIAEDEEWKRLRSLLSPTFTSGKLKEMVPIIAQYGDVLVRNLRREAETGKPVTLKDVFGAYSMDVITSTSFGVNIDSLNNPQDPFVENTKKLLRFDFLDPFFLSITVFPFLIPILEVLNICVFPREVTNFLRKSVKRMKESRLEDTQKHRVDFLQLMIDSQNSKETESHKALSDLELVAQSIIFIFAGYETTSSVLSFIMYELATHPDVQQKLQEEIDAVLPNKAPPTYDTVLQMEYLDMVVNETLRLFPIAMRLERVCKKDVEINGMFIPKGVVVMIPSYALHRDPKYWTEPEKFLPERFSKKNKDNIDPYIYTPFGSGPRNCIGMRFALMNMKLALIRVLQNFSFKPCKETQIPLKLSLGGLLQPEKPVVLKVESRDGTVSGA

IC50 [1] [µM]	IC50 [2] [µM]	IC50 [3] [µM]	IC50 [4] [µM]	IC50 [5] [µM]	IC50 [6] [µM]	SMILES
10.4 ± 0.41	0.4 ± 0.06	< 0.4	3.33 ± 0.71	0.64 ± 0.09	2.71 ± 0.12	CN(C[c-]1cccc1)CC(O)(Cn1cncn1)c1ccc(F)cc1F.Cl.[Fe+2].c1cc[cH-]c1 (stereo not shown) [2a, N-(ferrocenylmethyl)-2-(2,4-difluorophenyl)-2-hydroxy-N-methyl-3-(1H-1,2,4-triazol-1-yl)propan-1-aminium chloride]
> 100						OC(Cn1cncn1)(Cn1cncn1)c1ccc(F)cc1F [Fluconazole]
